Measured values published in publication PMC11435058, “Synthesis of New Thiazole-Privileged Chalcones as Tubulin Polymerization Inhibitors with Potential Anticancer Activities” (Pharmaceuticals, 2024).

How the values were obtained:
MDA-MB-435 = test: NCI-60 anticancer screen (SRB; single dose and five doses); conditions: Homo sapiens
TK-10 = test: as above; conditions: Homo sapiens
HOP-62 = test: as above; conditions: Homo sapiens
U251 = test: as above; conditions: Homo sapiens
NCI-H460 = test: as above; conditions: Homo sapiens
KM12 = test: as above; conditions: Homo sapiens
HT29 = test: as above; conditions: Homo sapiens
SNB-75 = test: as above
OVCAR-5 = test: as above; conditions: Homo sapiens
HL-60(TB) = test: as above; conditions: Homo sapiens
SW-620 = test: as above; conditions: Homo sapiens
T-47D = test: as above; conditions: Homo sapiens, T47D
SK-MEL-28 = test: as above; conditions: Homo sapiens
OVCAR-3 = test: cells; conditions: Homo sapiens
786-0 = test: NCI-60 anticancer screen (SRB; single dose and five doses); conditions: Homo sapiens
SF-295 = test: as above; conditions: Homo sapiens
UACC-62 = test: as above; conditions: Homo sapiens
CAKI-1 = test: as above; conditions: Homo sapiens
MDA-MB-468 = test: as above; assay type: cell-based, human
Description: The methodology of the NCI anticancer screening has been described in detail elsewhere (http://www.dtp.nci.nih.gov). For detailed information, see Appendix A in the Supplementary Materials.
4.2.1. Screening of the anticancer activity against a panel of 60 cell Lines.
The methodology of the NCI anticancer screening has been described in detail elsewhere (http://www.dtp.nci.nih.gov.) Briefly, the primary anticancer assay was performed at approximately 60 human tumor cell lines panel derived from nine neoplastic diseases, in accordance with the protocol of the Drug Evaluation Branch, National Cancer Institute, Bethesda. Tested compounds were added to the culture at a single concentration (10μM) and the cultures were incubated for 48 h. End -point determinations were made with a protein binding dye, SRB. Results for each tested compound was reported as the percent of growth of the treated cells when compared to the untreated control cells. The percentage growth was evaluated spectrophotometrically versus controls not treated with test agents. […]

SK-OV-3 = test: as above; conditions: Homo sapiens
IGROV1 = test: as above; conditions: Homo sapiens
HOP-92 = test: as above; conditions: Homo sapiens
OVCAR-4 = test: as above; conditions: Homo sapiens
A549/ATCC = test: as above; conditions: Homo sapiens
SK-MEL-2 = test: as above; conditions: Homo sapiens

`Cc1[nH]c(=S)sc1C(=O)/C=C/c1cccc(Cl)c1` [2e, (E)-3-(3-Chlorophenyl)-1-(4-Methyl-2-Thioxo-2,3-Dihydrothiazol-5-yl)Prop-2-En-1-One] gave a GI50 (MDA-MB-435; MDA-MB-435) of 2.09 µM, an IC50 (MDA-MB-435; MDA-MB-435) of 3.55 µM and an activity at 10 µM (MDA-MB-435; MDA-MB-435, 48 h, read-out: Growth Percentage) of 17.3%. It also gave a CC50 (MDA-MB-435; MDA-MB-435, read-out: LC50) of 17 µM, an IC (TGI) (MDA-MB-435; MDA-MB-435, read-out: TGI) of 5.01 µM and a GI50 (TK-10; TK-10) of 19.5 µM. It also gave an IC50 (TK-10; TK-10) of 45.7 µM, a CC50 (TK-10; TK-10, read-out: LC50) of over 100 µM and an IC (TGI) (TK-10; TK-10, read-out: TGI) of 47.9 µM. The GI50 (HOP-62; HOP-62) was 2.57 µM, the IC50 (HOP-62; HOP-62) was 4.68 µM and the activity at 10 µM (HOP-62; HOP-62, 48 h, read-out: Growth Percentage) was 10.4%. For the same compound, the CC50 (HOP-62; HOP-62, read-out: LC50) was 74.1 µM, the IC (TGI) (HOP-62; HOP-62, read-out: TGI) was 6.31 µM and the GI50 (U251; U-251) was 1.91 µM. The IC50 (U251; U-251) was 3.31 µM, the activity at 10 µM (U251; U-251, 48 h, read-out: Growth Percentage) was 12.1% and the CC50 (U251; U-251, read-out: LC50) was 7.24 µM. It also gave an IC (TGI) (U251; U-251, read-out: TGI) of 3.72 µM, a GI50 (NCI-H460; NCI-H460) of 2.75 µM and an IC50 (NCI-H460; NCI-H460) of 3.55 µM. For the same compound, the activity at 10 µM (NCI-H460; NCI-H460, 48 h, read-out: Growth Percentage) was 12.1%, the CC50 (NCI-H460; NCI-H460, read-out: LC50) was 45.7 µM and the IC (TGI) (NCI-H460; NCI-H460, read-out: TGI) was 7.59 µM. For the same compound, the GI50 (KM12; KM12) was 1.95 µM, the IC50 (KM12; KM12) was 3.39 µM and the activity at 10 µM (KM12; KM12, 48 h, read-out: Growth Percentage) was -30.7%. The IC (TGI) (KM12; KM12, read-out: TGI) was 3.89 µM, the GI50 (HT29; HT-29) was 2.24 µM and the IC50 (HT29; HT-29) was 3.55 µM. It also gave an activity at 10 µM (HT29; HT-29, 48 h, read-out: Growth Percentage) of 29.9%, a CC50 (HT29; HT-29, read-out: LC50) of 12.6 µM and an IC (TGI) (HT29; HT-29, read-out: TGI) of 4.9 µM. It also gave a GI50 (SNB-75; Homo sapiens, SNB-75) of 1.66 µM, an IC50 (SNB-75; Homo sapiens, SNB-75) of 3.8 µM and an activity at 10 µM (SNB-75; Homo sapiens, SNB-75, 48 h, read-out: Growth Percentage) of 8.74%. It also gave a TGI (SNB-75; five-dose, CNS Cancer SNB-75) of 3.63 µM, a GI50 (OVCAR-5; OVCAR-5) of 5.25 µM and an IC50 (OVCAR-5; OVCAR-5) of 15.5 µM. The activity at 10 µM (OVCAR-5; OVCAR-5, 48 h, read-out: Growth Percentage) was 36.4%, the CC50 (OVCAR-5; OVCAR-5, read-out: LC50) was 57.5 µM and the IC (TGI) (OVCAR-5; OVCAR-5, read-out: TGI) was 19.9 µM. For the same compound, the GI50 (HL-60(TB); HL-60) was 2.24 µM, the IC50 (HL-60(TB); HL-60) was 4.27 µM and the activity at 10 µM (HL-60(TB); HL-60, 48 h, read-out: Growth Percentage) was 25.3%. The CC50 (HL-60(TB); HL-60, read-out: LC50) was over 100 µM, the IC (TGI) (HL-60(TB); HL-60, read-out: TGI) was 7.08 µM and the GI50 (SW-620; SW-620) was 1.91 µM. It also gave an IC50 (SW-620; SW-620) of 3.16 µM, an activity at 10 µM (SW-620; SW-620, 48 h, read-out: Growth Percentage) of 8.6% and a CC50 (SW-620; SW-620, read-out: LC50) of 7.59 µM. For the same compound, the IC (TGI) (SW-620; SW-620, read-out: TGI) was 3.8 µM, the GI50 (T-47D) was 3.39 µM and the IC50 (T-47D) was 7.94 µM. For the same compound, the activity at 10 µM (T-47D; 48 h, read-out: Growth Percentage) was 4.54%, the CC50 (T-47D; read-out: LC50) was over 100 µM and the IC (TGI) (T-47D; read-out: TGI) was 20.9 µM. The GI50 (SK-MEL-28; SK-MEL-28) was 2.14 µM, the IC50 (SK-MEL-28; SK-MEL-28) was 4.07 µM and the activity at 10 µM (SK-MEL-28; SK-MEL-28, 48 h, read-out: Growth Percentage) was 44.7%. The CC50 (SK-MEL-28; SK-MEL-28, read-out: LC50) was 13.5 µM, the IC (TGI) (SK-MEL-28; SK-MEL-28, read-out: TGI) was 4.9 µM and the GI50 (OVCAR-3; OVCAR-3) was 2.29 µM. For the same compound, the IC50 (OVCAR-3; OVCAR-3) was 4.17 µM, the activity at 10 µM (OVCAR-3; OVCAR-3, 48 h, read-out: Growth Percentage) was 8.26% and the CC50 (OVCAR-3; OVCAR-3, read-out: LC50) was 22.9 µM. It also gave an IC (TGI) (OVCAR-3; OVCAR-3, read-out: TGI) of 6.03 µM, a GI50 (786-0; 786-0) of 2.51 µM and an IC50 (786-0; 786-0) of 4.07 µM. It also gave an activity at 10 µM (786-0; 786-0, 48 h, read-out: Growth Percentage) of 13.3%, a CC50 (786-0; 786-0, read-out: LC50) of 37.1 µM and an IC (TGI) (786-0; 786-0, read-out: TGI) of 6.31 µM. For the same compound, the GI50 (SF-295; SF-295) was 4.37 µM, the IC50 (SF-295; SF-295) was 11.5 µM and the activity at 10 µM (SF-295; SF-295, 48 h, read-out: Growth Percentage) was 41.8%. For the same compound, the CC50 (SF-295; SF-295, read-out: LC50) was 43.6 µM, the IC (TGI) (SF-295; SF-295, read-out: TGI) was 17 µM and the GI50 (UACC-62; UACC-62) was 2.34 µM. It also gave an IC50 (UACC-62; UACC-62) of 4.17 µM, an activity at 10 µM (UACC-62; UACC-62, 48 h, read-out: Growth Percentage) of 30% and an IC (TGI) (UACC-62; UACC-62, read-out: TGI) of 8.71 µM. It also gave a GI50 (CAKI-1; CAKI-1) of 4.68 µM, an IC50 (CAKI-1; CAKI-1) of 15.5 µM and an activity at 10 µM (CAKI-1; CAKI-1, 48 h, read-out: Growth Percentage) of 23.9%. The CC50 (CAKI-1; CAKI-1, read-out: LC50) was 69.2 µM, the IC (TGI) (CAKI-1; CAKI-1, read-out: TGI) was 20.9 µM and the activity at 10 µM (MDA-MB-468; Homo sapiens, 48 h, MDA-MB-468, dose of 10 μM, read-out: Growth Percentage) was -7.12%. The IC50 (MDA-MB-468; Homo sapiens, MDA-MB-468, MDA-MB-468, Breast Cancer, five dose) was 12.6 µM, the GI50 (MDA-MB-468; Homo sapiens, MDA-MB-468, Breast Cancer, five dose) was 3.8 µM and the CC50 (MDA-MB-468; Homo sapiens, MDA-MB-468, Breast Cancer, five dose, read-out: LC50 (the source's name)) was 46.8 µM. For the same compound, the TGI (MDA-MB-468; MDA-MB-468, Breast Cancer, five dose) was 15.85 µM, the GI50 (SK-OV-3; SK-OV-3) was 17.4 µM and the IC50 (SK-OV-3; SK-OV-3) was 51.3 µM. It also gave an activity at 10 µM (SK-OV-3; SK-OV-3, 48 h, read-out: Growth Percentage) of 59.9%, a CC50 (SK-OV-3; SK-OV-3, read-out: LC50) of over 100 µM and an IC (TGI) (SK-OV-3; SK-OV-3, read-out: TGI) of over 100 µM. The GI50 (IGROV1; IGROV-1) was 2.45 µM, the IC50 (IGROV1; IGROV-1) was 4.17 µM and the activity at 10 µM (IGROV1; IGROV-1, 48 h, read-out: Growth Percentage) was 34%. For the same compound, the CC50 (IGROV1; IGROV-1, read-out: LC50) was over 100 µM, the IC (TGI) (IGROV1; IGROV-1, read-out: TGI) was 6.46 µM and the GI50 (HOP-92; HOP-92) was 3.55 µM. It also gave an IC50 (HOP-92; HOP-92) of 79.4 µM, a CC50 (HOP-92; HOP-92, read-out: LC50) of over 100 µM and an IC (TGI) (HOP-92; HOP-92, read-out: TGI) of 30.9 µM. It also gave a GI50 (OVCAR-4; OVCAR-4) of 4.47 µM, an IC50 (OVCAR-4; OVCAR-4) of 12.9 µM and an activity at 10 µM (OVCAR-4; OVCAR-4, 48 h, read-out: Growth Percentage) of 31.7%. For the same compound, the CC50 (OVCAR-4; OVCAR-4, read-out: LC50) was over 100 µM, the IC (TGI) (OVCAR-4; OVCAR-4, read-out: TGI) was 41.7 µM and the GI50 (A549/ATCC; A549) was 4.79 µM. The IC50 (A549/ATCC; A549) was 7.41 µM, the activity at 10 µM (A549/ATCC; A549, 48 h, read-out: Growth Percentage) was 26.5% and the CC50 (A549/ATCC; A549, read-out: LC50) was over 100 µM. For the same compound, the IC (TGI) (A549/ATCC; A549, read-out: TGI) was 47.9 µM, the GI50 (SK-MEL-2; SK-MEL-2) was 10.5 µM and the IC50 (SK-MEL-2; SK-MEL-2) was 29.5 µM. The activity at 10 µM (SK-MEL-2; SK-MEL-2, 48 h, read-out: Growth Percentage) was 32.1%, the CC50 (SK-MEL-2; SK-MEL-2, read-out: LC50) was 70.8 µM and the IC (TGI) (SK-MEL-2; SK-MEL-2, read-out: TGI) was 27.5 µM.
